# Reference: patent US20260297085A1, “1 H-PYRROLO[2,3-B]PYRIDIN-4-YL]-2-OXOPYRROLIDINE-3-CARBONITRILE DERIVATIVES AS TYROSINE KINASE 2 (TYK2) INHIBITORS FOR THE TREATMENT OF INFLAMMATORY DISEASES” (BIOGEN MA INC., priority 2023, published 2026)
# pIC50: −log10 of the molar value.
# Key:
# [1] = molecular target: T1, human TYK2 kinase domain (JH1) (Homo sapiens, UniProt P29597); test: JH1 biochemical assay for TYK2 (ADP-Glo kinase assay, recombinant JH1 catalytic domain, JAK3-974 peptide, 10 μM ATP)
# T1 construct: recombinantly generated catalytic kinase (also known as JH1) domain of human JAK1, JAK2, JAK3 and TYK2
# T1 sequence (P29597 897-1176 limits assumed): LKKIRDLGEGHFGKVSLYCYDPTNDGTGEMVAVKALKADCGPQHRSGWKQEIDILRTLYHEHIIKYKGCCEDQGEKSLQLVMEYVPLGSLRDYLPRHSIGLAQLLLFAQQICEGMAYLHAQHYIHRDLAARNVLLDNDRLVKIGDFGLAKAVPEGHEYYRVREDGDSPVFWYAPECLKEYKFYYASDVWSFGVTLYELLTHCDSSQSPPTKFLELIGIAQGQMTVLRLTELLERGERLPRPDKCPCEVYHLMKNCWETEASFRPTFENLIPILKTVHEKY
# In short: (§1)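 Enzyme levels: JAK1 4 nM, JAK2 0.2 nM, JAK3 0.3 nM, TYK2 2 nM. Peptide substrate at 50 μM. Reactions ran 100 minutes; ADP formed was converted to luciferase luminescence after ATP depletion. Compounds tested from 10 μM or 1 μM top, 11-point 3-fold dilutions; IC50 from 4-parameter logistic fit of normalized percent activity.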
# [2] = molecular target: T2, human JAK1 kinase domain (JH1) (Homo sapiens, UniProt P23458); test: JH1 biochemical assay for JAK1 (ADP-Glo kinase assay, recombinant JH1 catalytic domain, JAK3-342 peptide, 35 μM ATP)
# T2 construct: recombinantly generated catalytic kinase (also known as JH1) domain of human JAK1, JAK2, JAK3 and TYK2
# In short: as §1
# [3] = molecular target: T3, human JAK2 kinase domain (JH1) (Homo sapiens, UniProt O60674); test: JH1 biochemical assay for JAK2 (ADP-Glo kinase assay, recombinant JH1 catalytic domain, JAK3-974 peptide, 15 μM ATP)
# T3 construct: recombinantly generated catalytic kinase (also known as JH1) domain of human JAK1, JAK2, JAK3 and TYK2
# In short: as §1
# [4] = molecular target: T4, human JAK3 kinase domain (JH1) (Homo sapiens, UniProt P52333); test: JH1 biochemical assay for JAK3 (ADP-Glo kinase assay, recombinant JH1 catalytic domain, JAK3-974 peptide, 4 μM ATP)
# T4 construct: recombinantly generated catalytic kinase (also known as JH1) domain of human JAK1, JAK2, JAK3 and TYK2
# In short: as §1
# [5] = molecular target: Tyk2 kinase activity on STAT4 in NK92 cells (Homo sapiens, UniProt P29597); test: pSTAT4 cell assay (MSD; NK92 cells, 30 ng/mL IL2 stimulation); assay type: cell-based; settings: 30 ng/mL IL2, 15 minutes
# In short: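 Compound treatment of starved NK92 cells ran 1 hr before a 15-minute, 30 ng/mL IL2 pulse; lysates went to an MSD anti-STAT4 antibody assay, with curves fitted by 4-parameter logistic model.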
# [6] = molecular target: JAK2 kinase activity on STAT5 in TF1 cells (Homo sapiens, UniProt O60674); test: pSTAT5 cell assay (MSD; TF1 cells, 30 ng/mL IL-3 stimulation); assay type: cell-based; settings: 30 ng/mL IL-3, 15 minutes
# In short: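 IC50 from a 4-parameter logistic fit of normalized pSTAT5 signal, measured by MSD in lysates of TF1 cells. Cells were serum-starved, exposed to compound for 1 h (top concentration 10 μM, four-fold, 10 points), then given IL-3 at 30 ng/mL for 15 min.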
# [7] = molecular target: JAK1 kinase activity on STAT3 in TF1 cells (Homo sapiens, UniProt P23458); test: pSTAT3 cell assay (MSD; TF1 cells, 30 ng/mL IL-6 stimulation); assay type: cell-based; settings: 30 ng/mL IL-6, 15 minutes
# In short: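 IC50 values derive from 4-parameter logistic fits of normalized pSTAT3 signal, measured by MSD with anti-STAT3 antibodies. TF1 cells, serum-starved beforehand, received compound for 1 hour (top concentration 10 μM, four-fold steps, 10 points) before a 15-minute IL-6 (30 ng/mL) stimulus.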
# T4 sequence (P52333 822-1111 limits assumed): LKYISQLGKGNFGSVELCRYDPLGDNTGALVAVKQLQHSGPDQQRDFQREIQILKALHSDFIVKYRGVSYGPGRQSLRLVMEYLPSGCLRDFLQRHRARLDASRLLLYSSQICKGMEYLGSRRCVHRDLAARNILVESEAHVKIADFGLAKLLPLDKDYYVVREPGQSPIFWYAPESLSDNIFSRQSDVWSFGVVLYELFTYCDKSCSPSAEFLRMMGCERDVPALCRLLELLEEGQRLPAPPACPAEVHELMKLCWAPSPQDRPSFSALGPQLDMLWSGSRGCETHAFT
# T3 sequence (O60674 849-1124 limits assumed): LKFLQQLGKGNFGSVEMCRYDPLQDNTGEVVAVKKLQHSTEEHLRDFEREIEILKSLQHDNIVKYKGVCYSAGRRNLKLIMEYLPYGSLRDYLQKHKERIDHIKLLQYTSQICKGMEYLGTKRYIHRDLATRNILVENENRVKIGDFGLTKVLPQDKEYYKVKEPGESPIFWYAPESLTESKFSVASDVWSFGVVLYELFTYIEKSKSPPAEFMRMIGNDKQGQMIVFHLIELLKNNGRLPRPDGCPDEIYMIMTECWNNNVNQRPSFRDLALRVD
# Chain of Tyk2 kinase activity on STAT4 in NK92 cells (P29597 whole entry): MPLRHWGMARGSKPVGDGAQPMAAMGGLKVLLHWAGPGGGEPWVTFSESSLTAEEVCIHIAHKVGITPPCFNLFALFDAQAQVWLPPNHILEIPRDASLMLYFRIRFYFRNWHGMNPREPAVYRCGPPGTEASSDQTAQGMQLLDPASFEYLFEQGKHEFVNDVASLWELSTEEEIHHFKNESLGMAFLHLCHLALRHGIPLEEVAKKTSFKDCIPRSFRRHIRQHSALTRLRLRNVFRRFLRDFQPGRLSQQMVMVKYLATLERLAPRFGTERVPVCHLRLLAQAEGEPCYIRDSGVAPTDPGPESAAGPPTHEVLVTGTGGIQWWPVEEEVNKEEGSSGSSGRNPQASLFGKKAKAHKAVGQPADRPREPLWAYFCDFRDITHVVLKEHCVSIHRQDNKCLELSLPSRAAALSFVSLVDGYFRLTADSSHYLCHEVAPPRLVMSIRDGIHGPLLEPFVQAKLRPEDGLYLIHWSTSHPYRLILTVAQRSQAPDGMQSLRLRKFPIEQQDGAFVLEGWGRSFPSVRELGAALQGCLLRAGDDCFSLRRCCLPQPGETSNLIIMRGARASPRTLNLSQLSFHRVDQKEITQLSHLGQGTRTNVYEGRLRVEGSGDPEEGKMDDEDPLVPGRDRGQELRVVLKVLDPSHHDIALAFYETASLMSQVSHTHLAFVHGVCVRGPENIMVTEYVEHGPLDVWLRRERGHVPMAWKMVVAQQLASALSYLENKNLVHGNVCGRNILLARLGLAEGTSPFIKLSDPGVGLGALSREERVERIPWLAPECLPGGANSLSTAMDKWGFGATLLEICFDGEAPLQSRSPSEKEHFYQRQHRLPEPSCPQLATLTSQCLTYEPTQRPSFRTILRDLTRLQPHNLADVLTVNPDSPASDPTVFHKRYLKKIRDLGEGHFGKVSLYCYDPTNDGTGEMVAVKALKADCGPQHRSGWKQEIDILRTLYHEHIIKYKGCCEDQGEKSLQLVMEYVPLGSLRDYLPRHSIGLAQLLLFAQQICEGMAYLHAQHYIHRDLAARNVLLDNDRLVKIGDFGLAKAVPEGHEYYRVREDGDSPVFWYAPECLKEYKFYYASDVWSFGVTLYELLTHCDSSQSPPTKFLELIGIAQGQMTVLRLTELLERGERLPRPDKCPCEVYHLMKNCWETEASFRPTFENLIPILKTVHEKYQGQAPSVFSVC
# T2 sequence (P23458 875-1153 limits assumed): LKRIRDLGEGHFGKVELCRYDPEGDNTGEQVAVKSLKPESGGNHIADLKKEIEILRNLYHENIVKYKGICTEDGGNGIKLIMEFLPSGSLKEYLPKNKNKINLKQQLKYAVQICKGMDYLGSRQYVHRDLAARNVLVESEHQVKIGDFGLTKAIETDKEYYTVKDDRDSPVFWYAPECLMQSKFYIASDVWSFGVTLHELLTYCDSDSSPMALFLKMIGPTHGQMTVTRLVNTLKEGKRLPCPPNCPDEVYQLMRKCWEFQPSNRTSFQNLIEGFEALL
# Chain of JAK1 kinase activity on STAT3 in TF1 cells (P23458 whole entry): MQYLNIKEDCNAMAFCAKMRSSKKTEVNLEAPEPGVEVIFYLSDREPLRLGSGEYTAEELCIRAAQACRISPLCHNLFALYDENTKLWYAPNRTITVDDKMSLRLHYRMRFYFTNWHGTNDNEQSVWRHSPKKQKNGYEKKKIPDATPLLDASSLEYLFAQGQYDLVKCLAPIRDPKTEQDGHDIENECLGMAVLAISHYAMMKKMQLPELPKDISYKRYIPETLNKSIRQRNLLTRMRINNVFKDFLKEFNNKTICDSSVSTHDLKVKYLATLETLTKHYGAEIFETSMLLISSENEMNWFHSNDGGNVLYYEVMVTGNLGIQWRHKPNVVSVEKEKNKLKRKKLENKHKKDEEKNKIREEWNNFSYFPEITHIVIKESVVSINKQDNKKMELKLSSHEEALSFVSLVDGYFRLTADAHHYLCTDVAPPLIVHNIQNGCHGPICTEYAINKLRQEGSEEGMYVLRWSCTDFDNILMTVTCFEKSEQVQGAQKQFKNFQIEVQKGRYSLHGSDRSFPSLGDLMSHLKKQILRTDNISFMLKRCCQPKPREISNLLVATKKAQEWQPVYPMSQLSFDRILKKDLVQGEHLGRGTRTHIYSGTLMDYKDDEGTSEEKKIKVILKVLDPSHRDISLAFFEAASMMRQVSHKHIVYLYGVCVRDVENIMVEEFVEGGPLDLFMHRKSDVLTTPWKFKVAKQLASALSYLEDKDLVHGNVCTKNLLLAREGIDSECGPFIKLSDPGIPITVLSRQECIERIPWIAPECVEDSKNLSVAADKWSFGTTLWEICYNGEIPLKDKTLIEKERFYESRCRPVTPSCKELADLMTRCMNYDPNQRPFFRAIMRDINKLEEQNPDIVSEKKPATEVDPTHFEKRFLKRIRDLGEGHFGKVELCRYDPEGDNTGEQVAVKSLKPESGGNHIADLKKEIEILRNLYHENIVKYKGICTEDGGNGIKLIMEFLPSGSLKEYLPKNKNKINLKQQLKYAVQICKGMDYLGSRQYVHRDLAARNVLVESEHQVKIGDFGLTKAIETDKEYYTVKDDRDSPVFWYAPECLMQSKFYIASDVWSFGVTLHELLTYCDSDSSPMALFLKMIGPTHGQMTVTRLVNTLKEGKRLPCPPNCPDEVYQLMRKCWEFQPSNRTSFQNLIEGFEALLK
# Chain of JAK2 kinase activity on STAT5 in TF1 cells (O60674 whole entry): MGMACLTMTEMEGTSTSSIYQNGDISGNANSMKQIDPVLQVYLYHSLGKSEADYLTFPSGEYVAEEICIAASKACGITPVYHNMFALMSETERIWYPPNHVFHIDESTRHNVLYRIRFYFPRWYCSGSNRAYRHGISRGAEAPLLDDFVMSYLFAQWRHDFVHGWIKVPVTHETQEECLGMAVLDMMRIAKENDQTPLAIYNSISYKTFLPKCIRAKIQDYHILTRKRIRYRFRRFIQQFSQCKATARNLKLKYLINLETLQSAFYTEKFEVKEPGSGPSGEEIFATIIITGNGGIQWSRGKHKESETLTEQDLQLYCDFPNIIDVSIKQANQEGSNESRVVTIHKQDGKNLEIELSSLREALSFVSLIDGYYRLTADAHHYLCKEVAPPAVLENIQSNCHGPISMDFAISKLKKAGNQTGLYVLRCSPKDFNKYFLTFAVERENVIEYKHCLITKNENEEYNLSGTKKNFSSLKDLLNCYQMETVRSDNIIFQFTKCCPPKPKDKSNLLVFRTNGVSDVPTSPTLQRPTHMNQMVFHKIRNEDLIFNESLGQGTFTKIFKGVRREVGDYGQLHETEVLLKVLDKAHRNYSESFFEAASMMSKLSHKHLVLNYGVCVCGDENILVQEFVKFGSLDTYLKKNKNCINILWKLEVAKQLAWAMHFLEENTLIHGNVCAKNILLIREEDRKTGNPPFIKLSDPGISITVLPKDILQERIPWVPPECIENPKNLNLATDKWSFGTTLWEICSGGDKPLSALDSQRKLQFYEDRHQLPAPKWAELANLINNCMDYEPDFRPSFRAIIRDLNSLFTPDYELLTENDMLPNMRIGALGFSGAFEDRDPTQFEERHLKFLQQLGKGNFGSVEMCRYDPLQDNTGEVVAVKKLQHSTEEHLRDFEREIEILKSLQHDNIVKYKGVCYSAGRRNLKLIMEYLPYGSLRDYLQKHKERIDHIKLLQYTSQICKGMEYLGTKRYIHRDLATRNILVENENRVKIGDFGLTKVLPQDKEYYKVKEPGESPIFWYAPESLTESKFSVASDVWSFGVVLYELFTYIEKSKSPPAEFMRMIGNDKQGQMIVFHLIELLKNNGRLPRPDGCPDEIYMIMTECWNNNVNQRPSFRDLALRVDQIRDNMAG
Structure (SMILES),"pIC50 ([1]; JH1 kinase domain, ADP-Glo)","pIC50 ([2]; JH1 kinase domain, ADP-Glo)","pIC50 ([3]; JH1 kinase domain, ADP-Glo)","pIC50 ([4]; JH1 kinase domain, ADP-Glo)",pIC50 [5],pIC50 [6],pIC50 [7],"pIC50 ([1]; TYK2 JH1, ADP-Glo)","pIC50 ([2]; JAK1 JH1, ADP-Glo)","pIC50 ([3]; JAK2 JH1, ADP-Glo)","pIC50 ([4]; JAK3 JH1, ADP-Glo)"
"C[C@@H]1CN(c2nc(-c3cnc4c(c3)CC(=O)N4)cn3nccc23)C(=O)[C@]1(C#N)C1CC1 [Example 205, (3R,4S)-3-cyclopropyl-4-methyl-2-oxo-1-(6-(2-oxo-2,3-dihydro-1H-pyrrolo[2,3-b]pyridin-5-yl)pyrazolo[1,5-a]pyrazin-4-yl)pyrrolidine-3-carbonitrile]",> 8.30,> 7.00,> 7.00,> 7.00,< 7.00,5.00 to 5.30,5.30 to 6.00,,,,
"C[C@@H]1CN(c2nc(-c3cnn(C)c3)cn3ncc(Cl)c23)C(=O)[C@]1(C#N)C1CC1 [Example 206, (3R,4S)-1-(3-chloro-6-(1-methyl-1H-pyrazol-4-yl)pyrazolo[1,5-a]pyrazin-4-yl)-3-cyclopropyl-4-methyl-2-oxopyrrolidine-3-carbonitrile]",7.70 to 8.30,6.00 to 7.00,6.00 to 7.00,6.00 to 7.00,< 7.00,< 5.00,< 5.00,,,,
"Cc1nc(C)c(-c2cn3nccc3c(N3C[C@@H](C)[C@@](C#N)(C4CC4)C3=O)n2)s1 [Example 209, (3R,4S)-3-cyclopropyl-1-(6-(2,4-dimethylthiazol-5-yl)pyrazolo[1,5-a]pyrazin-4-yl)-4-methyl-2-oxopyrrolidine-3-carbonitrile]",7.70 to 8.30,> 7.00,6.00 to 7.00,> 7.00,< 7.00,5.00 to 5.30,5.30 to 6.00,,,,
"C[C@@H]1CN(c2nc(-c3ccc(=O)n(C(F)F)c3)cn3nccc23)C(=O)[C@]1(C#N)C1CC1 [Example 210, (3R,4S)-3-cyclopropyl-1-(6-(1-(difluoromethyl)-6-oxo-1,6-dihydropyridin-3-yl)pyrazolo[1,5-a]pyrazin-4-yl)-4-methyl-2-oxopyrrolidine-3-carbonitrile]",> 8.30,> 7.00,6.00 to 7.00,> 7.00,< 7.00,5.00 to 5.30,5.30 to 6.00,,,,
"Cc1nc(-c2cn3nccc3c(N3C[C@@H](C)[C@@](C#N)(C4CC4)C3=O)n2)cs1 [Example 214, (3R,4S)-3-cyclopropyl-4-methyl-1-(6-(2-methylthiazol-4-yl)pyrazolo[1,5-a]pyrazin-4-yl)-2-oxopyrrolidine-3-carbonitrile]",7.70 to 8.30,6.00 to 7.00,6.00 to 7.00,6.00 to 7.00,< 7.00,5.00 to 5.30,5.30 to 6.00,,,,
"C[C@@H]1CN(c2nc(-c3cnn(C4CCCC4)c3)cn3ncc(F)c23)C(=O)[C@]1(C#N)C1CC1 [Example 217, (3R,4S)-1-(6-(1-cyclopentyl-1H-pyrazol-4-yl)-3-fluoropyrazolo[1,5-a]pyrazin-4-yl)-3-cyclopropyl-4-methyl-2-oxopyrrolidine-3-carbonitrile]",> 8.30,> 7.00,> 7.00,> 7.00,< 7.00,5.30 to 6.00,6.00 to 7.00,,,,

# Second part, the compound after the results:
"pIC50 ([1]; JH1 kinase domain, ADP-Glo)","pIC50 ([2]; JH1 kinase domain, ADP-Glo)","pIC50 ([3]; JH1 kinase domain, ADP-Glo)","pIC50 ([4]; JH1 kinase domain, ADP-Glo)",pIC50 [5],pIC50 [6],pIC50 [7],"pIC50 ([1]; TYK2 JH1, ADP-Glo)","pIC50 ([2]; JAK1 JH1, ADP-Glo)","pIC50 ([3]; JAK2 JH1, ADP-Glo)","pIC50 ([4]; JAK3 JH1, ADP-Glo)",Structure (SMILES)
> 8.30,> 7.00,> 7.00,> 7.00,7.30 to 7.70,> 7.00,6.00 to 7.00,,,,,"C[C@@H]1CN(c2nc(-c3cnn(C4CCOCC4)c3)cn3nccc23)C(=O)[C@]1(C#N)C1CC1 [Example 203, (3R,4S)-3-cyclopropyl-4-methyl-2-oxo-1-(6-(1-(tetrahydro-2H-pyran-4-yl)-1H-pyrazol-4-yl)pyrazolo[1,5-a]pyrazin-4-yl)pyrrolidine-3-carbonitrile]"
> 8.30,> 7.00,> 7.00,> 7.00,7.00 to 7.30,5.30 to 6.00,5.30 to 6.00,,,,,"C[C@@H]1CN(c2nc(-c3cnc4c(c3)CCC(=O)N4)cn3nccc23)C(=O)[C@]1(C#N)C1CC1 [Example 204, (3R,4S)-3-cyclopropyl-4-methyl-2-oxo-1-(6-(7-oxo-5,6,7,8-tetrahydro-1,8-naphthyridin-3-yl)pyrazolo[1,5-a]pyrazin-4-yl)pyrrolidine-3-carbonitrile]"
> 8.30,> 7.00,6.00 to 7.00,> 7.00,7.00 to 7.30,5.30 to 6.00,6.00 to 7.00,,,,,"C[C@@H]1CN(c2nc(-c3cnn(C45CC(C4)C5)c3)cn3ncc(F)c23)C(=O)[C@]1(C#N)C1CC1 [Example 207, (3R,4S)-1-(6-(1-(bicyclo[1.1.1]pentan-1-yl)-1H-pyrazol-4-yl)-3-fluoropyrazolo[1,5-a]pyrazin-4-yl)-3-cyclopropyl-4-methyl-2-oxopyrrolidine-3-carbonitrile]"
> 8.30,> 7.00,> 7.00,> 7.00,7.00 to 7.30,5.30 to 6.00,5.30 to 6.00,,,,,"Cc1nn(C)cc1-c1cn2nccc2c(N2C[C@@H](C)[C@@](C#N)(C3CC3)C2=O)n1 [Example 208, (3R,4S)-3-cyclopropyl-1-(6-(1,3-dimethyl-1H-pyrazol-4-yl)pyrazolo[1,5-a]pyrazin-4-yl)-4-methyl-2-oxopyrrolidine-3-carbonitrile]"
> 8.30,> 7.00,6.00 to 7.00,> 7.00,7.00 to 7.30,5.30 to 6.00,5.30 to 6.00,,,,,"[2H]C([2H])([2H])n1cc(-c2cn3ncc(F)c3c(N3C[C@@H](C)[C@@](C#N)(C4CC4)C3=O)n2)cn1 [Example 211, (3R,4S)-3-cyclopropyl-1-(3-fluoro-6-(1-(methyl-d3)-1H-pyrazol-4-yl)pyrazolo[1,5-a]pyrazin-4-yl)-4-methyl-2-oxopyrrolidine-3-carbonitrile]"
> 8.30,> 7.00,> 7.00,> 7.00,7.00 to 7.30,6.00 to 7.00,6.00 to 7.00,,,,,"C[C@@H]1CN(c2nc(-c3cnc4c(c3)CCN4)cn3nccc23)C(=O)[C@]1(C#N)C1CC1 [Example 215, (3R,4S)-3-cyclopropyl-1-(6-(2,3-dihydro-1H-pyrrolo[2,3-b]pyridin-5-yl)pyrazolo[1,5-a]pyrazin-4-yl)-4-methyl-2-oxopyrrolidine-3-carbonitrile]"
,,,,7.00 to 7.30,6.00 to 7.00,6.00 to 7.00,> 8.30,> 7.00,> 7.00,> 7.00,"C[C@@H]1CN(c2nc(-c3cnn(C4CCOCC4)c3)cn3ncc(F)c23)C(=O)[C@]1(C#N)C1CC1 [Example 218, (3R,4S)-3-cyclopropyl-1-(3-fluoro-6-(1-(tetrahydro-2H-pyran-4-yl)-1H-pyrazol-4-yl)pyrazolo[1,5-a]pyrazin-4-yl)-4-methyl-2-oxopyrrolidine-3-carbonitrile]"
,,,,7.00 to 7.30,6.00 to 7.00,6.00 to 7.00,> 8.30,> 7.00,> 7.00,> 7.00,"C[C@@H]1CN(c2nc(-c3cnn(C4CCCCC4)c3)cn3ncc(F)c23)C(=O)[C@]1(C#N)C1CC1 [Example 219, (3R,4S)-1-(6-(1-cyclohexyl-1H-pyrazol-4-yl)-3-fluoropyrazolo[1,5-a]pyrazin-4-yl)-3-cyclopropyl-4-methyl-2-oxopyrrolidine-3-carbonitrile]"
